Each block holds one compound with its values, some of them ahead of it. Positions of bridges follow the written chain, without caps; N, C: chain ends. Non-standard residues stand in square brackets, D forms with d. Residues, ends and D or L forms follow the SMILES beside them. NMeR = CN[C@@H](CCCNC(=N)N)C(=O)O; hArg = N=C(N)NCCCC[C@H](N)C(=O)O; 3Amb = NCc1cccc(C(=O)O)c1; dAbu = CC[C@@H](N)C(=O)O; Mpa = O=C(O)CCS
Experiments:
[1] = target: T1, Integrin alpha-IIb/beta-3 (Homo sapiens, UniProt P05106+P08514); experiment: Inhibition of fibrinogen binding to alpha IIb beta-3 integrin; format: protein-complex assay
Target sequence in this assay (P05106 27-788 limits assumed): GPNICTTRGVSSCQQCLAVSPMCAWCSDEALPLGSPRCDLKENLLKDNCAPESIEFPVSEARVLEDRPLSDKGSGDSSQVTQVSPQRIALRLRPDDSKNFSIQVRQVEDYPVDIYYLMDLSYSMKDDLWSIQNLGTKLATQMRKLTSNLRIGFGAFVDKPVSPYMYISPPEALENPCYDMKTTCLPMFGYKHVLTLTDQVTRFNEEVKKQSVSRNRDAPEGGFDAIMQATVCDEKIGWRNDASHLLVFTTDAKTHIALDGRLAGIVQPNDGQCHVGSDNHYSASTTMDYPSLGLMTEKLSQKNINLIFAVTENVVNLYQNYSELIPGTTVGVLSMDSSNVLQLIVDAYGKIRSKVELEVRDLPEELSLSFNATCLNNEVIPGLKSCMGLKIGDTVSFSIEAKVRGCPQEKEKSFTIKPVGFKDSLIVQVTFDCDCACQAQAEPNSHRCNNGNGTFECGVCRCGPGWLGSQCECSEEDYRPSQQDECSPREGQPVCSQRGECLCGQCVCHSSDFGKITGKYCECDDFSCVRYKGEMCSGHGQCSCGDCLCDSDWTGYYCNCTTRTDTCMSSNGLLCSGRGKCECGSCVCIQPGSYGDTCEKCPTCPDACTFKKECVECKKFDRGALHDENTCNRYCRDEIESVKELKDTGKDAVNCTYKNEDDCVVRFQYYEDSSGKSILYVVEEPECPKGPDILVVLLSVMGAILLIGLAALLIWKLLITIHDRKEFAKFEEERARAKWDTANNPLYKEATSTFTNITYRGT
Target sequence in this assay (P08514 32-887 limits assumed): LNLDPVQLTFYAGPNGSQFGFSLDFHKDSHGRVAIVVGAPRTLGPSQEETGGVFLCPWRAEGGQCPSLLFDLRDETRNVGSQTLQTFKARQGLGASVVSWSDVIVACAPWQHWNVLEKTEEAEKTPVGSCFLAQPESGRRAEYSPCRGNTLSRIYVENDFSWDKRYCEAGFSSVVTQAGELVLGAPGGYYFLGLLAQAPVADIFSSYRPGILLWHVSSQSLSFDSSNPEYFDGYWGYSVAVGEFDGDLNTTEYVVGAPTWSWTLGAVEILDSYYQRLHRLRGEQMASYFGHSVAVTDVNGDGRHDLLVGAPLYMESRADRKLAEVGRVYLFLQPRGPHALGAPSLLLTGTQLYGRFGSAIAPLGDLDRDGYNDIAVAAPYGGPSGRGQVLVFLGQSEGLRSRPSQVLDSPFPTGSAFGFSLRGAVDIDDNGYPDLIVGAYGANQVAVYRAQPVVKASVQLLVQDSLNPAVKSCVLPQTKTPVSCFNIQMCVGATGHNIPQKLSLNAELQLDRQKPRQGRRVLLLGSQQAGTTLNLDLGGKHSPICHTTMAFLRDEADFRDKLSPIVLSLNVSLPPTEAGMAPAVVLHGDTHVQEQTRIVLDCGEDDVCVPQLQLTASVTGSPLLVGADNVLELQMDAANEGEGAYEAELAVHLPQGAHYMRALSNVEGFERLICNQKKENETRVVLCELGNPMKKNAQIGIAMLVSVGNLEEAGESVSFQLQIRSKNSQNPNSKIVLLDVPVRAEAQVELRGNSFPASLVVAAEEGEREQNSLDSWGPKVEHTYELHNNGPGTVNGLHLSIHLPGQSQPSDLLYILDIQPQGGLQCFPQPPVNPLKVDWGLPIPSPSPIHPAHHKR
Target sequence in this assay (P08514 891-1039 limits assumed): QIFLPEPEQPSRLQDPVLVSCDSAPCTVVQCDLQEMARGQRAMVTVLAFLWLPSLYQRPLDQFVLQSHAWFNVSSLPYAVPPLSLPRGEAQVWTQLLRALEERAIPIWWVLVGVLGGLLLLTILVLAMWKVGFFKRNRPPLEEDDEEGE

[2] = biological half-life was measured on dog; format: ADME, organism-based, Canis lupus familiaris; details: in vivo
[3] = target: T1, Integrin alpha-IIb/beta-3; experiment: Inhibition of [125]fibrinogen binding to alpha IIb beta-3 integrin; format: protein-complex assay
Target sequence in this assay (P05106 27-788 limits assumed): as the sequence (P05106 27-788 limits assumed) above
Target sequence in this assay (P08514 32-887 limits assumed): as the sequence (P08514 32-887 limits assumed) above
Target sequence in this assay (P08514 891-1039 limits assumed): as the sequence (P08514 891-1039 limits assumed) above

[4] = target: T1, Integrin alpha-IIb/beta-3; experiment: Inhibition of platelet aggregation after oral administration of 3 mg/kg to guinea pigs at 8 hr; format: functional, organism-based; set-up: dose 3 mg/kg; details: Cavia porcellus; target entry is the homologue from another species; at 3 mg/kg
[5] = target: T1, Integrin alpha-IIb/beta-3; experiment: Inhibition of platelet aggregation after oral administration of 3 mg/kg to guinea pigs within 1 hr; format: functional, organism-based; set-up: dose 3 mg/kg; details: Cavia porcellus; target entry is the homologue from another species; at 3 mg/kg
[6] = oral bioavailability was measured in dogs; format: ADME, organism-based, Canis lupus familiaris; details: dog, in vivo
[7] = oral bioavailability was measured in rhesus monkeys; format: ADME, organism-based, Macaca mulatta; details: rhesus monkey, in vivo
[8] = In vitro inhibition of gel filtered platelet aggregation induced by ADP.
[9] = target: T1, Integrin alpha-IIb/beta-3; experiment: Inhibition of ex vivo maximal platelet aggregation in conscious dogs after oral administration of 4 mg/kg; details: Canis lupus familiaris; target entry is the homologue from another species; at 4 mg/kg
Homo sapiens [10] = species on record: Homo sapiens; experiment: biological half-life was measured on unactivated human platelets
[11] = Inhibition of platelet aggregation
[12] = half life was measured on dogs; format: ADME, organism-based, Canis lupus familiaris; details: dog, in vivo
[13] = half-life of compound in human; details: in vivo
[14] = Oral bioavailability in dog; format: ADME, organism-based, Canis lupus familiaris; details: in vivo
[15] = biological half-life was measured on dogs; format: ADME, organism-based, Canis lupus familiaris; details: dog, in vivo
[16] = oral bio availability was measured on dogs; format: ADME, organism-based, Canis lupus familiaris; details: dog, in vivo
[17] = target: T1, Integrin alpha-IIb/beta-3; experiment: Dissociation constant for [3H]-DMP728 binding to alphaIIb beta III integrin; format: protein-complex assay
Target sequence in this assay (P05106 27-788 limits assumed): as the sequence (P05106 27-788 limits assumed) above
Target sequence in this assay (P08514 32-887 limits assumed): as the sequence (P08514 32-887 limits assumed) above
Target sequence in this assay (P08514 891-1039 limits assumed): as the sequence (P08514 891-1039 limits assumed) above

[18] = target: T1, Integrin alpha-IIb/beta-3; experiment: Dissociation constant for alpha IIb beta-3 integrin rested platelets; format: functional
Target sequence in this assay (P05106 27-788 limits assumed): as the sequence (P05106 27-788 limits assumed) above
Target sequence in this assay (P08514 32-887 limits assumed): as the sequence (P08514 32-887 limits assumed) above
Target sequence in this assay (P08514 891-1039 limits assumed): as the sequence (P08514 891-1039 limits assumed) above

[19] = target: T1, Integrin alpha-IIb/beta-3; experiment: Inhibition of platelet aggregation after administration of 30 ug/kg iv bolus to dogs within first 1-15 min; format: functional, organism-based; details: Canis lupus familiaris; target entry is the homologue from another species
[20] = target: T1, Integrin alpha-IIb/beta-3; experiment: Inhibition of ex vivo platelet aggregation after oral administration of 0.5 mg/kg to cynomolgus monkeys at 2-8h; format: functional, organism-based; set-up: dose 0.5 mg/kg; details: at 0.5 mg/kg
[21] = Duration of action in dog at a dose of 1 mg/kg i.d.; format: ADME, organism-based, Canis lupus familiaris; set-up: dose 1 mg/kg, route intraduodenal; details: in vivo, other
[22] = target: T1, Integrin alpha-IIb/beta-3; experiment: Inhibition of alpha IIb beta III mediated platelet aggregation
Target sequence in this assay (P05106 27-788 limits assumed): as the sequence (P05106 27-788 limits assumed) above
Target sequence in this assay (P08514 32-887 limits assumed): as the sequence (P08514 32-887 limits assumed) above
Target sequence in this assay (P08514 891-1039 limits assumed): as the sequence (P08514 891-1039 limits assumed) above

[23] = target: T1, Integrin alpha-IIb/beta-3; experiment: Inhibition of platelet aggregation after 0.25 mg/kg/day dose over 4 days at trough plasma concentrations in dogs; format: functional, organism-based; details: Canis lupus familiaris, target entry is the homologue from another species
[24] = target: T1, Integrin alpha-IIb/beta-3; experiment: Inhibition of fibrinogen binding to alpha IIb beta-3 integrin using thrombin inhibitor PPACK as anticoagulant; format: functional
Target sequence in this assay (P05106 27-788 limits assumed): as the sequence (P05106 27-788 limits assumed) above
Target sequence in this assay (P08514 32-887 limits assumed): as the sequence (P08514 32-887 limits assumed) above
Target sequence in this assay (P08514 891-1039 limits assumed): as the sequence (P08514 891-1039 limits assumed) above

Homo sapiens [25] = species on record: Homo sapiens; experiment: half-life was measured on unactivated human platelets
[26] = oral bioavailability was measured on rats; format: ADME, organism-based; details: rat, in vivo
[27] = oral bioavailability was measured on rhesus monkey; format: ADME, organism-based, Macaca mulatta; details: in vivo
[28] = target: T1, Integrin alpha-IIb/beta-3; experiment: Inhibition of fibrinogen binding to activated platelets
[29] = target: T1, Integrin alpha-IIb/beta-3; experiment: Inhibition of fixed platelet aggregation; format: functional
[30] = oral bioavailability was measured on dogs and rats; format: ADME, organism-based; details: eutheria, in vivo
[31] = target: T1, Integrin alpha-IIb/beta-3; experiment: Inhibition of platelet aggregation after 10 ug/kg/day dose over 6 days in dogs; format: functional; details: Canis lupus familiaris; target entry is the homologue from another species
[32] = biological half-life was measured on rhesus monkeys; format: ADME, organism-based, Macaca mulatta; details: rhesus monkey, in vivo
[33] = The biological half life was measured on dog; format: ADME, organism-based, Canis lupus familiaris; details: in vivo
[34] = Half-life in humans; format: ADME, organism-based; details: human, in vivo
[35] = Bioavailability in humans; format: ADME, organism-based; details: human, in vivo
[36] = Inhibition of vitronectin receptor binding; set-up: species or system Homo sapiens
[37] = target: T1, Integrin alpha-IIb/beta-3; experiment: Percent inhibition of gel filtered platelet aggregation induced by ADP; format: functional; details: concentration not given here
[38] = target: T1, Integrin alpha-IIb/beta-3; experiment: Inhibition of platelet aggregation after administration of 0.1 mg/kg at 24 hr; details: Canis lupus familiaris
[39] = target: T1, Integrin alpha-IIb/beta-3; experiment: Inhibition of platelet aggregation after administration of 10 ug/kg iv to dogs at 8 hr; format: functional, organism-based; details: Canis lupus familiaris; target entry is the homologue from another species
[40] = target: T1, Integrin alpha-IIb/beta-3; experiment: Inhibition of platelet aggregation after administration of 10 ug/kg iv to dogs within 1 min; format: functional, organism-based; details: Canis lupus familiaris; target entry is the homologue from another species

IC50 [1]: 0.48 µM
half-life [2]: 1.1 h
IC50 [3]: 0.0028 µM
Structure (SMILES): CC(=O)N[C@H]1CSSC[C@@H](C(N)=O)NC(=O)[C@H](CC(=O)O)NC(=O)CNC(=O)[C@H](CCCN=C(N)N)N(C)C1=O (Ac-C[NMeR]GDC-NH2; disulfide 1-5)

inhibition [4]: 40%
inhibition [5]: > 90%
Structure (SMILES): COC(=O)C[C@H]1C(=O)N(CC(=O)O)CCN1C(=O)CNC(=O)c1ccc(C(=N)N)cc1

bioavailability [6]: > 17%
bioavailability [7]: 32%
Structure (SMILES): C#C[C@H](CC(=O)OCC)NC(=O)CN1CCc2ccc(N3CCNCC3)cc2C1=O

IC50 [8]: 0.025 µM
inhibition [9]: 90%
Structure (SMILES): O=C(O)CCNC(=O)c1ccc2c(c1)C(=O)N(CCC1CCNCC1)C2

T1/2 (Homo sapiens [10]): 7 min
Structure (SMILES): CCCCOC(=O)N[C@@H](CNC(=O)C[C@H]1CC(c2ccc(C(=N)N)cc2)=NO1)C(=O)O

IC50 [11]: 0.017 µM
Structure (SMILES): O=C(NC[C@H](NS(=O)(=O)c1ccccc1)C(=O)O)c1ccc(N2CCNCC2)cc1

half-life [12]: 1.42 h
Structure (SMILES): O=C(O)C[C@H](NC(=O)[C@@H]1CCCN(C(=O)CCC2CCNCC2)C1)c1cccnc1 [ELAROFIBAN]

IC50 [8]: 0.015 µM
Structure (SMILES): O=C(NC[C@H](NS(=O)(=O)c1cccnc1)C(=O)O)c1ccc2c(c1)C(=O)N(CCC1CCNCC1)C2

half-life [13]: 0.5 h
Structure (SMILES): CCCCS(=O)(=O)N[C@@H](Cc1ccc(OCCCCC2CCNCC2)cc1)C(=O)O [TIROFIBAN]

bioavailability [14]: 42%
half-life [15]: 9.9 h
Structure (SMILES): C[C@@]1(c2ccc(C(=N)N)cc2)NC(=O)N(CC(=O)NC(CC(=O)O)c2ccccc2)C1=O (some centres not stated)

IC50 [1]: 0.0023 µM
bioavailability [16]: 12%
Kd [17]: 0.0001 µM
Structure (SMILES): CC[C@H]1NC(=O)c2cccc(c2)CNC(=O)[C@H](CC(=O)O)NC(=O)CNC(=O)[C@H](CCCN=C(N)N)N(C)C1=O (cyclo([NMeR]GD[3Amb][dAbu]))

IC50 [8]: 0.12 µM
Structure (SMILES): CN1C(=O)CN(CCC(=O)O)C(=O)c2cc(C#Cc3ccc(C(=N)N)cc3)ccc21

Kd [18]: 0.65 µM
bioavailability [14]: 16%
inhibition [19]: > 90%
Structure (SMILES): C[C@H](CC(=O)O)NC(=O)CN1CCC[C@@H](CCC2CCNCC2)C1=O

inhibition [20]: > 80%
Structure (SMILES): Cc1c(C(=O)NCCC(=O)O)s/c(=N\C(=O)c2ccc(C(=N)N3CCC4(CC3)OCCO4)cc2)n1C

IC50 [1]: 27 µM
Structure (SMILES): CC(=O)N[C@@H](CCCN=C(N)N)C(=O)NCC(=O)N[C@@H](CC(=O)O)C(=O)N[C@H](C(N)=O)C(C)C (Ac-RGDV-NH2)

duration of action [21]: > 8 h
Kd [22]: 0.00185 µM
Structure (SMILES): CN1Cc2cc(C(=O)N3CCC(C4CCNCC4)CC3)ccc2N[C@@H](CC(=O)O)C1=O [LOTRAFIBAN]

inhibition [23]: 95%
Structure (SMILES): O=C(NC[C@H](NS(=O)(=O)c1ccccc1)C(=O)O)c1cc2cc(OCC3CCNCC3)ccc2[nH]1

IC50 [24]: 0.57 µM
Structure (SMILES): N=C(N)NCCCC[C@@H]1NC(=O)CCSSC[C@@H](C(N)=O)NC(=O)[C@@H]2CCCN2C(=O)[C@H](Cc2c[nH]c3ccccc23)NC(=O)[C@H](CC(=O)O)NC(=O)CNC1=O [EPTIFIBATIDE] ([Mpa][hArg]GDWPC-NH2; disulfide 1-7)

T1/2 (Homo sapiens [25]): 0.533 h
Structure (SMILES): Cc1noc(C)c1S(=O)(=O)N[C@@H](CNC(=O)C[C@H]1CC(c2ccc(C(=N)N)cc2)=NO1)C(=O)O

bioavailability [26]: 6%
bioavailability [27]: 21%
Structure (SMILES): CCOC(=O)CCN1CC(=O)N(C)c2ccc(C#Cc3ccc(C(=N)NC(=O)OCC)cc3)cc2C1=O

bioavailability [6]: 4.9%
Structure (SMILES): O=C(CCCC1CCNCC1)NCC(=O)N[C@H](CCc1c[nH]c2ccccc12)C(=O)O

IC50 [28]: 0.028 µM
IC50 [29]: 0.097 µM
Structure (SMILES): CCN(CC(=O)N[C@@H](CC(=O)O)C(=O)N[C@@H](Cc1ccccc1)C(N)=O)C(=O)CCCC1CCNCC1

bioavailability [30]: > 50%
Structure (SMILES): C[C@@H](COc1ccc(N2CCN(c3ccncc3)CC2)cc1)CC(=O)O

IC50 [8]: 0.008 µM
inhibition [31]: > 80%
Structure (SMILES): O=C(NC[C@H](NS(=O)(=O)c1cccnc1)C(=O)O)c1cc2cc(CCC3CCNCC3)sc2s1

half-life [2]: 18 h
bioavailability [14]: 28%
Structure (SMILES): CCOC(=O)CCNC(=O)N[C@H]1CCN(c2ccc(C(=N)N)cc2)C1=O [ORBOFIBAN]

half-life [32]: 5.1 h
half-life [15]: 11.4 h
Structure (SMILES): C[C@H](NC(=O)c1ccc(C(=N)N)cc1)C(=O)N1CCC(OCC(=O)O)CC1 [RO-44-3888]

F [14]: 53%
Structure (SMILES): C#C[C@H](CC(=O)OCC)NC(=O)CCC(=O)Nc1ccc(C(=N)N)cc1 [XEMILOFIBAN]

IC50 [1]: 27 µM
Structure (SMILES): COc1ccc(C[C@H](NC(=O)[C@H](CC(=O)O)NC(=O)CNC(=O)[C@@H](N)CCCNC(=N)N)C(N)=O)cc1 (H-RGDY(Me)-NH2)

IC50 [8]: 0.007 µM
Structure (SMILES): O=C(NC[C@H](NS(=O)(=O)c1ccccc1)C(=O)O)c1cc2sc(CCC3CCNCC3)cc2s1

half-life [33]: 6.5 h
bioavailability [14]: 53%
Structure (SMILES): C#C[C@H](CC(=O)O)NC(=O)CCC(=O)Nc1ccc(C(=N)N)cc1

half-life [34]: 6 h
bioavailability [35]: 40%
Structure (SMILES): CCOC(=O)CN1CCN(C[C@@H]2CN(c3ccc(C(N)=NC(=O)OC)cc3)C(=O)O2)CC1 [GANTOFIBAN]

IC50 [8]: 0.09 µM
Structure (SMILES): N=C(N)c1ccc(C(=O)Nc2ccc3c(c2)CCN(CC(=O)O)C3=O)cc1

Ki [36]: 0.0035 µM
Structure (SMILES): CN1C(=O)c2ccccc2SSc2ccccc2NC(=O)[C@H](CC(=O)O)NC(=O)CNC(=O)[C@@H]1CCCN=C(N)N [SKF-107260]

inhibition [37]: 66%
inhibition [38]: 87%
inhibition [39]: > 90%
inhibition [40]: 79%
Structure (SMILES): Cc1ccc(S(=O)(=O)N[C@@H](CNC(=O)c2cc3n(n2)CCCN(CCC2CCNCC2)C3=O)C(=O)O)cc1

IC50 [8]: 0.035 µM
Structure (SMILES): N=C(N)c1ccc2oc(C(=O)NCCC(=O)NC[C@H](NS(=O)(=O)c3ccccc3)C(=O)O)cc2c1

Kd [18]: 0.0014 µM
Structure (SMILES): CCCCS(=O)(=O)N[C@@H](CNC(=O)c1cc2n(n1)CCN(CCC1CCNCC1)C2=O)C(=O)O

Source: ChEMBL document CHEMBL1133644, “Platelet glycoprotein IIb-IIIa antagonists as prototypical integrin blockers: novel parenteral and potential oral antithrombotic agents” (J Med Chem, 2000)
